The values that follow come from patent US9688743B2, “Optical biosensors” (Carnegie Mellon University, priority 2007, dated 2017).

The conditions of data set [1]: comparison value; cited from earlier work.
The test system of data set [2] is JAR200 cells. As to the kind of experiment: Effect of fluorogens on yeast cell growth. The data set is classed as cell-based. As to conditions: 500 nM fluorogen, 30° C. As for the experimental part:
FIG. 17 is a graph depicting the effect of fluorogens on yeast cell growth. JAR200 cells are inoculated at ˜10^6 cells/ml into 35 ml SD+CAA medium in 125 ml baffled flasks and allowed to grow at 30° C. at 300 RPM for 2 hours prior to addition of fluorogens at the indicated concentrations. One ml samples are removed at indicated time points, and growth halted by addition of 75 μl of 300 mM NaN3 prior to reading absorbance. Doubling time of about 1.9 hrs is unchanged by most fluorogen treatments. For 500 nM MG-ester, the doubling time is about 2.8 hrs; and for 500 nM MG, the doubling time is over 24 hrs.

Data set [3] relates to living NIH3T3 cells. As to the kind of experiment: Entry of fluorogen controls into living cells. The data set is classed as cell-based, mouse.

As for `O=C(O)c1ccccc1-c1c2ccc(=O)c([As]3SCCS3)c-2oc2c([As]3SCCS3)c(O)ccc12` [F1AsH-EDT2], the “fluorescence increase on binding cognate tetracysteine peptide” value in data set [1] was 50,000 fold.
For the compound `CN(C)c1ccc(C(=C2C=CC(=[N+](C)C)C=C2)c2ccccc2)cc1` [MG, malachite green, reference compound], the doubling time entry in data set [2] is on record as “over 24 hrs”.
The same measure, in the same setting: the same measure for `CCOC(=O)CCCc1ccc([C+](c2ccc(N(C)C)cc2)c2ccc(N(C)C)cc2)cc1.[Cl-]` [MG-ester, Methylium, bis[4-(dimethylamino)phenyl](4-(3-carboethoxypropyl)phenyl)-chloride]: “about 2.8 hrs”.
In the case of “2-[(1-(18-amino-4,9-diaza-12,15-dioxa-5,8-dioxo-octadecanyl)-4(111)-quinolinylidene)methyl-3-(3-sulfopropyl)benzothiazolinium]trifluoroacetate [TO1-2p]”, in data set [3], the “entry into living cells” value is on record as “did not enter living NIH3T3 cells”.
